Converted amounts (≈) assume the structure as drawn.

In experiment [1] the test system is middle cerebral artery occlusion (MCAO) model. Briefly: Anti-stroke effect in middle cerebral artery occlusion (MCAO) model, oral administration before inducing stroke. The class given is in vivo, rats of SD species. The following applies: 2 g/kg po; for Infarcted volume (Mean ± standard deviation): negative control 0.45 ± 0.03.
The test system of experiment [2] is mixed culture of nerve cells-glial cells. In words: Protecting effect on NMDA-induced nerve cell death (LDH release). The class given is cell-based, ICR mouse. Particulars: 100 μM NMDA, LDH release after 24 hours. The method, boiled down:
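Embryonic day-14 ICR mouse cortical neurons seeded on cortical glia, Ara-C-treated, then exposed at day 12–15 for 20 min to 100 μM NMDA with compound at 1 or 2 μg/mL. LDH released 24 h later measured colorimetrically as a cell-death index.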
Background: LDH leaks from cells whose membrane has failed.

The next experiment deals with mouse brain cells. In words: Inhibitory effect on ROS production in brain cells (DCF-DA, NMDA-induced). The class given is cell-based. Particulars: 24 h; dose suppressing 50% of production of reactive oxygen compared to control; mouse brain cells; read-out: ROS inhibitory effect ID50.
In experiment [3] the test system is superoxide dismutase (SOD). Briefly: Increase of superoxide dismutase (SOD) activity in mouse brain cells. The class given is cell-based. The following applies: 100 μg/ml. The method, then:
ROS inhibitory effect of compounds was represented to the dose suppressing 50% of production of reactive oxygen compared to control. […] The activity of superoxide dismutase (SOD) was measured by using a kit acquired in Sigma.

Experiment [4] relates to pentylentetrazole (PTZ)-induced convulsion. In words: Anti-convulsant effect, pentylentetrazole (PTZ) test. Type of experiment: in vivo. Particulars: 10 mg/kg intraperitoneally, PTZ 80 mg/kg subcutaneously; for mortality rate / Induction percentage of convulsion: (animals/total); for mortality rate: negative control 70(17/23); for Induction percentage of convulsion: negative control 100(23/23); for Initiation time of convulsion: negative control 5.0 ± 0.7; for Duration of convulsion: negative control 46.7 ± 3.3. The method, boiled down: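 Compound was given intraperitoneally at 10 mg/kg before PTZ challenge. The read-outs were time to convulsion onset, time until convulsions fully disappeared, and mortality.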

A further experiment concerns thoracic aorta of rats. Briefly: Relaxing effect on thoracic aorta contracted by phenylephrine (organ bath). Also on record: species or system rats of SD species. The following applies: Rattus norvegicus; 67 μg/mL; phenylephrine 0.5 μM; mean n = 3; read-out: Relaxation percentage. The gist of the method:
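Thoracic aortic rings (2 mm) from ether-anesthetized male SD rats (250-300 g) were mounted in Krebs buffer gassed with 95% O2/5% CO2 and equilibrated at 1.0 g basal tension for 90 min. After stable contraction with phenylephrine (0.5 μM), compounds were added and relaxation recorded.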

Another experiment has as its system SH-SY5Y cells. In words: Inhibitory effect on ZnSO4-mediated cytotoxicity (MTT assay). The class given is cell-based, humans. The following applies: compound 50 μg/ml; 600 μM zinc sulfate, 24 hours. The method, then:
SH-SY5Y cells were cultured with 3×10^4 cell concentration in 96 well plates, and the compound (50 μg/ml) was treated. After 30 minutes, 600 μM of zinc sulfate was treated to induce toxicity for 24 hours and survival rate of cells was measured by MTT assay.
For orientation: Tetrazolium dyes change colour on reduction, which living cells bring about.

Setting [5] is: treatment time 0 (right before inducing ischemic stroke).
[6] abbreviates: treatment time 1 (an hour before inducing ischemic stroke).

`C[N+](C)(C)CCOP(=O)(O)OP(=O)([O-])OC[C@H]1O[C@@H](n2ccc(N)nc2=O)[C@H](O)[C@@H]1O` [Citicoline, reference compound]: in experiment [1] (setting [5]), the “Inhibitory percentage compared to negative control” value is on record as 37.8% and the “Infarcted volume (Mean ± standard deviation)” value is given as 0.28 ± 0.04 cm^3. For the same compound, in experiment [1] (setting [6]), the “Inhibitory percentage compared to negative control” value came to 51.1% and the “Infarcted volume (Mean ± standard deviation)” value is given as 0.22 ± 0.03 cm^3.

On to `NCCCNCCCCNCCCn1c(=O)[nH]c2ccccc2c1=O` [Compound 1, 3-{3-[4-(3-aminopropylamino)butylamino]propyl}-1H-quinazoline-2,4-dione], for which the “Inhibitory effect of cell death by NMDA-induced excitable neurotoxicity” value (from here on “Inhibitory effect of cell death”) in experiment [2] (1 μg/ml compound) was 16.1%. For the same compound, the “Inhibitory effect of cell death” value in experiment [2] (2 μg/ml compound) was 2.4%. For the same compound, in the experiment on mouse brain cells, the IC50 stood at 73 ± 14.1 µg/mL (≈ 210 µM). For the same compound, in experiment [3], the “Increase of SOD activity, compared to control” value (from here on “Increase of SOD activity”) stood at 0.7 ± 5.6. In experiment [4], the mortality rate is 67(4/6) %, the “Induction percentage of convulsion” value is recorded as 83(5/6) %, the “Initiation time of convulsion” value is listed as 16.1 ± 9.0 min and the Duration of convulsion came to 43.9 ± 9.0 min. For the same compound, the inhibition at 67 µg/mL in the experiment on thoracic aorta of rats worked out at 12.8%.

With `O=c1[nH]c2ccccc2c(=O)n1CCCNCCCCNCCCn1c(=O)[nH]c2ccccc2c1=O` [Compound 2, 3-(3-{4-[3-(2,4-dioxo-1,4-dihydro-2H-quinazolin-3-yl)propylamino]butylamino}propyl)-1H-quinazoline-2,4-dione], the “Inhibitory effect of cell death” value in experiment [2] (1 μg/ml compound) was 11.0%. Further, the “Inhibitory effect of cell death” value in experiment [2] (2 μg/ml compound) is on record as 0.7%. Besides, the “inhibitory percentage, zinc-induced toxicity” value in the experiment with SH-SY5Y cells is recorded as 21.7 ± 4.1%. Also, the “Increase of SOD activity” value in experiment [3] was 2.8 ± 4.0. In experiment [4], the mortality rate is given as 67(4/6) %, the “Induction percentage of convulsion” value is listed as 100(6/6) %, the “Initiation time of convulsion” value was found to be 12.9 ± 3.7 min and the Duration of convulsion is listed as 35.7 ± 7.1 min. For the same compound, the inhibition at 67 µg/mL in the experiment with thoracic aorta of rats was 10.9%.

Consider `O=c1[nH]c2ccccc2c(=O)n1CCNCCCNCCn1c(=O)[nH]c2ccccc2c1=O` [Compound 23, 3-(2-{3-[2-(2,4-dioxo-1,4-dihydro-2H-quinazolin-3-yl)ethylamino]propylamino}ethyl)-1H-quinazoline-2,4-dione], for which the “Inhibitory effect of cell death” value in experiment [2] (1 μg/ml compound) stood at 36.0%. For the same compound, the “Inhibitory effect of cell death” value in experiment [2] (2 μg/ml compound) came to 32.2%. In addition, the IC50 in the experiment with mouse brain cells was determined as 55.5 ± 27.2 µg/mL (≈ 123 µM). Moreover, the “Increase of SOD activity” value in experiment [3] stood at 4.0 ± 10. Besides, in experiment [4], the mortality rate was 33(2/6) %, the “Induction percentage of convulsion” value is 100(6/6) %, the “Initiation time of convulsion” value stood at 9.3 ± 2.5 min and the Duration of convulsion is 28.7 ± 8.6 min. The inhibition at 67 µg/mL with thoracic aorta of rats was found to be 20.4%.

Consider `O=c1[nH]c2ccccc2c(=O)n1CCCNCC=CCNCCCn1c(=O)[nH]c2ccccc2c1=O` [Compound 25, 3-(3-{4-[3-(2,4-dioxo-1,4-dihydro-2H-quinazolin-3-yl)propylamino]-2-butenylamino}propyl)-1H-quinazoline-2,4-dione], for which the “Inhibitory effect of cell death” value in experiment [2] (1 μg/ml compound) is recorded as 35.2%. Further, in experiment [2] (2 μg/ml compound), the “Inhibitory effect of cell death” value was found to be 28.8%. In addition, in the experiment on mouse brain cells, the IC50 was determined as 104 ± 32.5 µg/mL (≈ 212 µM). Besides, in experiment [3], the “Increase of SOD activity” value is 1.6 ± 9.3. Further, in experiment [4], the mortality rate was 83(5/6) %, the “Induction percentage of convulsion” value is on record as 100(6/6) %, the “Initiation time of convulsion” value amounted to 6.2 ± 1.5 min and the Duration of convulsion is reported as 48.3 ± 5.9 min. For the same compound, the inhibition at 67 µg/mL with thoracic aorta of rats was found to be 20%.

As to `CCCCCCN(CCCCN(CCCn1c(=O)[nH]c2ccccc2c1=O)C(=O)OC(C)(C)C)CCCn1c(=O)[nH]c2ccccc2c1=O` [Compound 30, [3-(2,4-dioxo-1,4-dihydro-2H-quinazolin-3-yl)propyl]-(4-{[3-(2,4-dioxo-1,4-dihydro-2H-quinazolin-3-yl)propyl]hexylamino}butyl)carbamic acid tert-butyl ester], the “Inhibitory effect of cell death” value in experiment [2] (1 μg/ml compound) is 38.3%. Besides, the “Inhibitory effect of cell death” value in experiment [2] (2 μg/ml compound) was 44.4%. Further, the IC50 in the experiment on mouse brain cells came to 79.5 ± 15.7 µg/mL (≈ 117 µM). In addition, the “Increase of SOD activity” value in experiment [3] is 6.2 ± 6.2. In experiment [4], the mortality rate was 83(5/6) %, the “Induction percentage of convulsion” value was 83(5/6) %, the “Initiation time of convulsion” value is listed as 15.9 ± 9.0 min and the Duration of convulsion is recorded as 44.1 ± 9.0 min. Also, the inhibition at 67 µg/mL with thoracic aorta of rats is 40.4%.

As for `COCC(=O)N(CCCCNCCCn1c(=O)[nH]c2ccccc2c1=O)CCCn1c(=O)[nH]c2ccccc2c1=O` [Compound 38, N-[3-(2,4-dioxo-1,4-dihydro-2H-quinazolin-3-yl)propyl]-N-{4-[3-(2,4-dioxo-1,4-dihydro-2H-quinazolin-3-yl)propylamino]butyl}-2-methoxyacetamide], the “Inhibitory effect of cell death” value in experiment [2] (1 μg/ml compound) is reported as 33.5%. Besides, the “Inhibitory effect of cell death” value in experiment [2] (2 μg/ml compound) is given as 13.5%. The IC50 with mouse brain cells turned out to be 136 ± 11 µg/mL (≈ 241 µM). In experiment [3], the “Increase of SOD activity” value is reported as 3.2 ± 4.9. In experiment [4], the mortality rate is listed as 17(1/6) %, the “Induction percentage of convulsion” value is listed as 83(5/6) %, the “Initiation time of convulsion” value is reported as 16.0 ± 9.0 min and the Duration of convulsion came out at 11.2 ± 7.3 min. The inhibition at 67 µg/mL in the experiment with thoracic aorta of rats was 88.2%.

Turning to `O=C(OCc1ccccc1)N(CCCCNCCCn1c(=O)[nH]c2ccccc2c1=O)CCCn1c(=O)[nH]c2ccccc2c1=O` [Compound 39, [3-(2,4-dioxo-1,4-dihydro-2H-quinazolin-3-yl)propyl]-{4-[3-(2,4-dioxo-1,4-dihydro-2H-quinazolin-3-yl)propylamino]butyl}carbamic acid benzyl ester], the “Inhibitory effect of cell death” value in experiment [2] (1 μg/ml compound) is 30.8%. Also, in experiment [2] (2 μg/ml compound), the “Inhibitory effect of cell death” value is 17.1%. Besides, the IC50 in the experiment with mouse brain cells amounted to 32.3 ± 20 µg/mL (≈ 51.5 µM). Further, the “Increase of SOD activity” value in experiment [3] is recorded as 19.0 ± 6.3. Moreover, in experiment [4], the mortality rate is given as 0(0/6) %, the “Induction percentage of convulsion” value is 100(6/6) %, the “Initiation time of convulsion” value came to 9.5 ± 2.8 min and the Duration of convulsion is recorded as 19.8 ± 6.4 min. The inhibition at 67 µg/mL with thoracic aorta of rats amounted to 54.8%.

As to `Cc1ccc(S(=O)(=O)N(CCCCN(CCCn2c(=O)[nH]c3ccccc3c2=O)S(=O)(=O)c2ccc(C)cc2)CCCn2c(=O)[nH]c3ccccc3c2=O)cc1` [Compound 41, N-[3-(2,4-dioxo-1,4-dihydro-2H-quinazolin-3-yl)propyl]-N-(4-{[3-(2,4-dioxo-1,4-dihydro-2H-quinazolin-3-yl)propyl]-4-methylbenzenesulfonylamino}butyl)-4-methylbenzenesulfonamide], the “Inhibitory effect of cell death” value in experiment [2] (2 μg/ml compound) is reported as 28.5%. In addition, the IC50 in the experiment with mouse brain cells amounted to 27.2 ± 18.6 µg/mL (≈ 34 µM). Further, the “Increase of SOD activity” value in experiment [3] amounted to 2.0 ± 0.9. Moreover, the inhibition at 67 µg/mL in the experiment with thoracic aorta of rats was 7.1%.

With `O=C1CCC(=O)N1CCCNCCCCNCCCn1c(=O)[nH]c2ccccc2c1=O` [Compound 42, 3-(3-{4-[3-(2,5-dioxo-pyrrolidine-1-yl)propylamino]butylamino}propyl)-1H-quinazoline-2,4-dione], the “Inhibitory effect of cell death” value in experiment [2] (1 μg/ml compound) turned out to be 24.6%. In addition, in experiment [2] (2 μg/ml compound), the “Inhibitory effect of cell death” value worked out at 21.8%. The IC50 with mouse brain cells is 138 ± 21 µg/mL (≈ 321 µM). Besides, the “Increase of SOD activity” value in experiment [3] is reported as 1.6 ± 2.6. Besides, in experiment [4], the mortality rate is 17(1/6) %, the “Induction percentage of convulsion” value was 100(6/6) %, the “Initiation time of convulsion” value is reported as 9.8 ± 4.1 min and the Duration of convulsion was found to be 18.2 ± 8.6 min. For the same compound, in the experiment with thoracic aorta of rats, the inhibition at 67 µg/mL stood at 14.6%.
